# From US7384639B2, “Methods of treating or preventing an infectious disease using an immunogenic conjugate of a gram-negative bacterial autoinducer molecule” (University of Rochester, priority 1998, dated 2008)
# pEC50: −log10 of the molar value.
# Columns and labels:
# LasR = assay: microbe, parasite or virus in culture; assay type: cell-based; settings: Pseudomonas aeruginosa, read-out: concentration that stimulates half-maximal activity
# Method: Positive clones were tested in a Pseudomonas aeruginosa bioassay. PAC-JP2 (bearing the lasI/rhII double deletion) produces no PAI-1 but retains the ability to produce LasR. When PAI-1 is added exogenously, it can bind to LasR and induce the transcription of lasI. Test samples containing 40 nM PAI-1 (the concentration that stimulates half-maximal activity in this assay) were preincubated at 37° C. with anti-PAI-1 monoclonal antibody (618.4). Control samples containing 40 nm PAI-1 were preincubated at 37° C. with an equal volume of PBS. Following preincubation, the samples were tested in a Pseudomonas aeruginosa bioassay using PAO-JP2 containing a plasmid with a lasI/LacZ fusion. When the bacteria reached on OD600 of 0.8-1.0, the samples were assayed for the production of β-galactosidase, which was expressed as Miller Units of activity.
# [1] = system: lasI/lasZ transcriptional fusion (lasR); settings: λI14-MG4 (pPCS1), Seed et al., 1995, cited from earlier work
# lymphocytes = settings: in vivo (so in the source); Telford et al., 1998; cited from earlier work
# [2] = system: tumor necrosis factor and interleukin-12; settings: Telford et al., 1998; cited from earlier work
structure (smiles),measurement,setting,value
"CCCCCCCCCC(=O)CC(=O)NC1CCOC1=O [PAI-1, N-(3-oxo)-dodecanoyl-L-homoserine lactone]",pEC50,LasR,7.40
same,lowest PAI-1 concentration that activates the construct,[1],10 pM
same,pEC50,[1]; read-out: PAI-1 concentration for half-maximal expression,10.00
same,effect on proliferation of lymphocytes,lymphocytes,inhibit the proliferation of lymphocytes
same,effect on expression of tumor necrosis factor and interleukin-12,[2],downregulates expression
